Assay results: patent US8394391B2, “Drug delivery vehicle that mimics viral properties” (University of Utah Research Foundation, priority 2007, dated 2013)

Experiments:
Assay type in all cases: cell-based, human
A2780/AD cells [1] = experiment: Migration to neighboring cells in co-culture (confocal slice images); settings: for secondary infection of co-cultured untreated cells: 20 hours co-culture
Method: Experiments were conducted to verify migration of virogels to neighboring cells. Cells grown on glass slide fragments (“plates”) (1×1 cm) were pre-treated with free DOX (10 μg/ml) or equivalent DOX-loaded virogels or NPs (controls), E. S. Lee, K. Na & Y. H. Bae, Polymeric micelle for tumor pH and folate-mediated targeting, 91 J. Control. Release 103-113 (2003)) for 4 hours. These pretreated cells (A cells) were washed with PBS (pH 7.4) and co-cultured with fresh cells (B-0 cells) on new glass slide fragments for 20 hours in fresh culture medium. Co-culturing was carried out by placing a plate containing A cells and a plate containing B-0 cells next to each other, but separated by 1 mm, in a culture dish such that the A cells and B-0 cells continuously shared fresh culture medium. The A cells served as a potential source for migration of virogels, and the B-0 cells were a potential site for secondary virogel infection.
After the B-0 cells were co-cultured with A cells for 20 hours, such B-0 cells were redesignated as B-1 cells. B-1 cells were then withdrawn from the culture dish and were co-cultured with fresh cells on new glass slide fragments for 20 hours in fresh culture medium. These fresh cells that had been co-cultured with B-1 cells were termed B-2 cells. These B-2 cells were then also withdrawn and co-cultured with fresh cells on new glass slide fragments for 20 hours in fresh culture medium. These fresh cells that had been co-cultured with B-2 cells were termed B-3 cells. Confocal slice images were obtained, as described above, for observing fluorescent DOX in cells. To evaluate the effect of DOX on virogel migration, blank virogels (50 μg/ml) were tested using the same procedure. FITC-labeling (Example 2) was used to visualize the blank virogels.

A2780/AD cells [2] = experiment: MTT cell cytotoxicity, drug-resistant A2780/AD cells; settings: DOX equivalent 5 μg/ml, 48 hours, pH 7.4
Method: (§1) A2780 and A2780/AD cells suspended in RPMI 1640 medium (200 μl) were seeded in a 96-well plate and cultured for 24 hours before testing. Free DOX (5 μg/ml) or equivalent DOX-loaded samples (virogels and control NPs) were added to the medium-removed 96-well plate for cell cytotoxicity tests. The pH of the culture medium was adjusted to pH 7.4 or pH 6.8 for 48 hours during the test, as described in A. Patchornik et al., supra. Cell cytotoxicity was measured using the tetrazolium salt MTT assay. E. S. Lee, K. Na & Y. H. Bae, 5 Nano Lett. 325-329 (2005); E. S. Lee, K. Na & Y. H. Bae, 103 J. Control. Release 405-418 (2005).

A2780 cells = experiment: MTT cell cytotoxicity, A2780 cells; settings: drug-sensitive A2780; DOX equivalent 5 μg/ml; 48 hours; pH 7.4
Method: as §1

Structure (SMILES): COc1cccc2c1C(=O)c1c(O)c3c(c(O)c1C2=O)C[C@@](O)(C(=O)CO)C[C@@H]3O[C@H]1C[C@H](N)[C@H](O)[C@H](C)O1 [free DOX, doxorubicin]
- distribution of fluorescence within primary treated cells (A cells) (A2780/AD cells [1]; 4 hours pre-treatment, DOX 10 μg/ml equivalent (blank virogels 50 μg/ml, FITC)): only limited fractions of DOX diffusing into cells
- migration from infected A2780/AD cells to untreated cells (A2780/AD cells [1]; FIG. 7 legend, overall): no such migration
- secondary infection of co-cultured untreated cells (A2780/AD cells [1]; first cycle, B-1 cells): No further cell effects
- secondary infection of co-cultured untreated cells (A2780/AD cells [1]; second cycle, B-2 cells): No further cell effects
- secondary infection of co-cultured untreated cells (A2780/AD cells [1]; third cycle, B-3 cells): No further cell effects
- viability (A2780/AD cells [2]): 80%
- viability (A2780 cells): 30%
